In brackets after ≈: the same amount, converted by molar mass. Like-named read-outs stand apart in the source and are kept apart here.
Assays:
[1] = system: rhinovirus 2 (HRV-2); experiment: Cytopathic effect; type: cell-based, human rhinovirus; conditions: for antiviral activity against HRV-2 (in words): HeLa cells, non-cytotoxic concentrations; for IC50: read-out: HRV (experimental result, activity class)
[2] = target: CB2 receptor (Homo sapiens, UniProt P34972); experiment: Radioligand
[3] = system: HeLa cell monolayers; experiment: Cytotoxicity on HeLa cell monolayers; type: cell-based; conditions: HeLa cells; for CC50: 72 h incubation, two independent tests
[4] = target: AChE EC 3.1.1.7 (Homo sapiens, UniProt P22303); experiment: Spectrophotometric AChE inhibition assay; type: biochemical
AChE EC 3.1.1.7, sequence (P22303 32-614): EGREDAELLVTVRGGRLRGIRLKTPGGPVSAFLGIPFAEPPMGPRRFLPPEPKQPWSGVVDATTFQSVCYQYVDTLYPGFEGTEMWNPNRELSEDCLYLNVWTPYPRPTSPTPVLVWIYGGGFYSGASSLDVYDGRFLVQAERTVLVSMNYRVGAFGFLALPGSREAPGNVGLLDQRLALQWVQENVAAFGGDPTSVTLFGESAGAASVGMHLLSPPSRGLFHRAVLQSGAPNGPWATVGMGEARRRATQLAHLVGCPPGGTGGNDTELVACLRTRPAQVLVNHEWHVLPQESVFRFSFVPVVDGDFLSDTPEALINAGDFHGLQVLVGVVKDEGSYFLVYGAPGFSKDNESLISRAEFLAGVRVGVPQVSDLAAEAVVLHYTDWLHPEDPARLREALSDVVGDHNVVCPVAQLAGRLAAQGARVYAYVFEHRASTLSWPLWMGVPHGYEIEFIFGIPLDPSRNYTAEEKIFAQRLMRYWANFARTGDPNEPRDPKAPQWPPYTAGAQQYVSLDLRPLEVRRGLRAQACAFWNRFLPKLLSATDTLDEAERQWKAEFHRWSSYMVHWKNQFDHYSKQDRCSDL

[5] = Cytotoxicity on HeLa cell monolayers; type: cell-based; conditions: human, confluent HeLa cell monolayers
[6] = target: CB1 receptor (Homo sapiens, UniProt P21554); experiment: Radioligand
CB1 receptor, sequence (P21554 whole entry): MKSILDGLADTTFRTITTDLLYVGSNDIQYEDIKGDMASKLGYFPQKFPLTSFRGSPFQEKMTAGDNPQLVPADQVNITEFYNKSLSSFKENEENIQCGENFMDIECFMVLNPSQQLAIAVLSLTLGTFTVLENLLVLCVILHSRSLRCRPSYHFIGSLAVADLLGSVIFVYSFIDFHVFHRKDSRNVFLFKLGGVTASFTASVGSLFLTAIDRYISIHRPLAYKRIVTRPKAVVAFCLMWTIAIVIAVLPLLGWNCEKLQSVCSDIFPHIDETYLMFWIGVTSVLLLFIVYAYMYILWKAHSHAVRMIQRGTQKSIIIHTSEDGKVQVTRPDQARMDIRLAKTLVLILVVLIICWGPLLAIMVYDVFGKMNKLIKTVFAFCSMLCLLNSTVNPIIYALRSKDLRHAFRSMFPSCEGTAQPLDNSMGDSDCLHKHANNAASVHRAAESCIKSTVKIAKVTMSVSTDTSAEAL

[7] = read-out: CB2 (experimental result, activity class), Table 5 overview
[8] = read-out: hCB2 Ki ± SD, displacement of [3H]CP-55,940, Cheng-Prusoff
[9] = read-out: AChE (experimental result, activity class), Table 5 overview
[10] = AChE IC50 ± SD, in vitro, modified Ellman's method, 96-well microplate, n = 4
[11] = CB2 (experimental result, activity class), Table 5 overview
[12] = hCB2 Ki ± SD, displacement of [3H]CP-55,940, Cheng-Prusoff
[13] = AChE (experimental result, activity class), Table 5 overview

CB2 receptor, sequence (P34972 whole entry): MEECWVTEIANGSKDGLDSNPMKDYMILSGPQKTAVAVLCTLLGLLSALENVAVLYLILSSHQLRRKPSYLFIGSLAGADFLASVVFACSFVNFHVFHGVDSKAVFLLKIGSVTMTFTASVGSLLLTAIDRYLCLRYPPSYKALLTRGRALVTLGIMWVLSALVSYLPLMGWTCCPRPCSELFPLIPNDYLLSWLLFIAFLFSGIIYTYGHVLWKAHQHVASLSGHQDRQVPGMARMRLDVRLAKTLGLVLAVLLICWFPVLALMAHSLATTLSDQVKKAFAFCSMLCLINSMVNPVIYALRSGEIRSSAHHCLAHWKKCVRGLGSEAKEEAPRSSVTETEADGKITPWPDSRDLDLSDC

## Cn1c2c(c(=O)c3ccccc31)CC(O)C(C)(C)O2 (centres unmarked) [Compound 8, S-ribalinine]
[1]
  antiviral activity against HRV-2 (in words): Weak, but significant and dose-dependent antiviral activities
[1]; Table 5 overview
  IC50: 20 to 100 µM
[2]; [7]
  Ki: > 100 µM
[2]; [8]
  Ki: > 100 µM
[3]
  CC50: > 50 mg/L
[4]; [9]
  IC50: > 500 µM

## COC(=O)CCc1cc2ccoc2c(OC)c1O [Compound 16, Methyl 3-(6-hydroxy-7-methoxybenzofuran-5-yl)propanoate]
[1]; Enterovirus, HRV2, HeLa
  IC50: 20 to 100 µM
[1]
  antiviral activity against HRV-2 (in words): Weak, but significant and dose-dependent antiviral activities
[5]
  CC50 at 72 h: > 50 mg/L
[4]; [10]
  IC50: > 500 µM
[4]; [9]
  IC50: > 500 µM

## COc1cc2c(c(O)c1OC)c(=O)c1ccccc1n2C [Compound 1, arborinine]
[6]
  Ki: > 100 µM
[1]; Enterovirus, HRV2, HeLa
  IC50: < 10 µM
[1]
  antiviral activity against HRV-2 (in words): most active antiviral constituents
[2]; [11]
  Ki: > 100 µM
[2]; [12]
  Ki: > 100 µM
[5]
  CC50 at 72 h: > 50 mg/L
[4]
  AChE inhibiting activity (in words): strongest AChE inhibiting activity
[4]; [13]
  IC50: < 50 µM
[4]; [10]
  IC50: 34.7 ± 7.1 µM

## COc1c(C[C@@H](O)C(C)(C)O)c(=O)n(C)c2ccccc12 [Compound 10, (−)-edulinine]
[2]; [7]
  Ki: > 100 µM
[2]; [8]
  Ki: > 100 µM
[4]; [9]
  IC50: > 500 µM

## COc1ccc2ccc(=O)oc2c1 [Compound 12, 7-methoxycoumarin]
[4]; [13]
  IC50: > 500 µM
[4]; [10]
  IC50: > 500 µM

## COc1cc2cc(Oc3ccc4ccc(=O)oc4c3)c(=O)oc2cc1OC [Compound 2, daphnoretin methyl ether]
[1]
  antiviral activity against HRV-2 (in words): Weak, but significant and dose-dependent antiviral activities
[1]; Table 5 overview
  IC50: 20 to 100 µM
[3]
  CC50: > 50 mg/L
[4]; [9]
  IC50: > 500 µM

## COc1c2occc2cc2ccc(=O)oc12 [Compound 7, 8-methoxy psoralene]
[4]; [13]
  IC50: > 500 µM
[4]; [10]
  IC50: > 500 µM

## COC(=O)CC(O)c1cc(OC)c(O)c(OC)c1 (centres unmarked) [Compound 14, Methyl 3-hydroxy-3-(4-hydroxy-3,5-dimethoxyphenyl)propanoate]
[1]; Enterovirus, HRV2, HeLa
  IC50: > 100 µM
[5]
  CC50 at 72 h: > 50 mg/L
[4]; [10]
  IC50: > 500 µM
[4]; [9]
  IC50: > 500 µM

## COC(=O)C1OC1c1cc(OC)c(O)c(OC)c1 (centres unmarked) [Compound 15, Methyl 3-(4-hydroxy-3,5-dimethoxyphenyl)oxirane-2-carboxylate]
[5]
  CC50 at 72 h: > 50 mg/L
[4]; [10]
  IC50: > 500 µM

## isoplatydesmin [Compound 9]
[2]; [8]
  Ki: > 100 µM
[4]
  AChE inhibiting activity (in words): Modest effects

## CC(C)=CCOc1c2ccoc2cc2oc(=O)ccc12 [Compound 4, isoimperatorine]
[4]; [13]
  IC50: > 500 µM
[4]; [10]
  IC50: > 500 µM

## O=c1ccc2cc3ccoc3cc2o1 [Compound 5, psoralen]
[4]; [13]
  IC50: > 500 µM
[4]; [10]
  IC50: > 500 µM

## O=c1cc(-c2ccc3c(c2)OCO3)[nH]c2ccccc12 [Compound 11, norgraveoline]
[1]; Table 5 overview
  IC50: > 100 µM
[3]
  CC50: 32.2 mg/L (≈ 121 µM)
[4]
  AChE inhibiting activity (in words): Modest effects
[4]; [9]
  IC50: 50 to 200 µM

## COc1c2ccoc2cc2oc(=O)ccc12 [Compound 6, bergapten]
[4]; [13]
  IC50: > 500 µM
[4]; [10]
  IC50: > 500 µM

## CCCCCc1cc(O)c2c(c1)OC(C)(C)c1ccc(C)cc1-2 [Cannabinol, reference compound]
[6]
  Ki: 0.42 ± 0.13 µM
[2]; [12]
  Ki: 0.12 ± 0.01 µM

## COc1cc2ccc(=O)oc2c(OC)c1OC [Compound 13, 6,7,8-trimethoxycoumarin]
[1]; Enterovirus, HRV2, HeLa
  IC50: 10 to 20 µM
[1]
  antiviral activity against HRV-2 (in words): most active antiviral constituents
[5]
  CC50 at 72 h: > 50 mg/L
[4]
  AChE inhibiting activity (in words): Modest effects
[4]; [13]
  IC50: 200 to 500 µM
[4]; [10]
  IC50: 396 ± 68.5 µM

## Cc1cc(CCCOc2c(C)cc(-c3noc(C(F)(F)F)n3)cc2C)on1 [Pleconaril, reference compound]
[5]
  CC50 at 72 h: 12.6 mg/L (≈ 33 µM)

## C=CC(C)(C)c1cc2cc3c(cc2oc1=O)OC(C(C)(C)OC(C)=O)C3 (centres unmarked) [Compound 3, rutamarin]
[6]
  Ki: > 100 µM
[1]; Table 5 overview
  HRV (experimental result, activity class): cytotoxic
[2]; [11]
  Ki: < 10 µM
[2]; CB2 Ki, displacement of [3H]CP-55,940
  Ki: 7.41 µM
[2]; [12]
  Ki: 7.4 ± 0.6 µM
[2]; radioligand displacement assay
  binding affinity to the CB receptors (in words): selective affinity to the CB2 receptor
[3]
  cytotoxicity (in words): pronounced cytotoxicity
[5]
  CC50 at 72 h: 0.9 mg/L (≈ 2.53 µM)
[4]; [13]
  IC50: > 500 µM
[4]; [10]
  IC50: > 500 µM
